# Test system: 922993-354-T-J3-PDC complex spheroid viability
# Test: Anticancer human tumor 922993-354-T-J3-PDC patient-derived endometrial carcinoma cell line growth inhibition [POLQ]
# Conditions: for IC50: curve of first compound; for viability, T/C: stronger effect = lower value
# In short: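 PDC + HUVEC + MSC complex spheroids; POLQ inhibitors ± partner drugs; top conc. at/near clinical Cmax, else 10 microM (SN-38 1 microM), half-log dilutions; 37 degrees C, 5% CO2.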
# [1] = second compound 0.0316 µM, first compound 0.0316 µM
# [2] = second compound 0.0316 µM, first compound 0.1 µM
# [3] = second compound 0.0316 µM, first compound 0.316 µM
# [4] = second compound 0.0316 µM, first compound 1 µM
# [5] = second compound 0.1 µM, first compound 0.0316 µM
# [6] = second compound 0.1 µM, first compound 0.1 µM
# [7] = second compound 0.1 µM, first compound 0.316 µM
# [8] = second compound 0.1 µM, first compound 1 µM
# [9] = second compound 0.316 µM, first compound 0.0316 µM
# [10] = second compound 0.316 µM, first compound 0.1 µM
# [11] = second compound 0.316 µM, first compound 0.316 µM
# [12] = second compound 0.316 µM, first compound 1 µM
# [13] = second compound 1 µM, first compound 0.0316 µM
# [14] = second compound 1 µM, first compound 0.1 µM
# [15] = second compound 1 µM, first compound 0.316 µM
# [16] = second compound 1 µM, first compound 1 µM
# [17] = second compound 3.16 µM, first compound 0.0316 µM
# [18] = second compound 3.16 µM, first compound 0.1 µM
# [19] = second compound 3.16 µM, first compound 0.316 µM
# [20] = second compound 3.16 µM, first compound 1 µM
# [21] = second compound 10 µM, first compound 0.0316 µM
# [22] = second compound 10 µM, first compound 0.1 µM
# [23] = second compound 10 µM, first compound 0.316 µM
# [24] = second compound 10 µM, first compound 1 µM
# [25] = second compound 0.0316 µM, first compound 3.16 µM
# [26] = second compound 0.0316 µM, first compound 10 µM
# [27] = second compound 0.1 µM, first compound 3.16 µM
# [28] = second compound 0.1 µM, first compound 10 µM
# [29] = second compound 0.316 µM, first compound 3.16 µM
# [30] = second compound 0.316 µM, first compound 10 µM
# [31] = second compound 1 µM, first compound 3.16 µM
# [32] = second compound 1 µM, first compound 10 µM
# [33] = second compound 3.16 µM, first compound 3.16 µM
# [34] = second compound 3.16 µM, first compound 10 µM
# [35] = second compound 10 µM, first compound 3.16 µM
# [36] = second compound 10 µM, first compound 10 µM
# 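Also: spheroids exposed to the agents for one week.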
# 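For viability, T/C in this document: 100% = DMSO vehicle control wells.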
smiles,measurement,setting,value
COc1cccc(OCCCN)c1-c1cc(Nc2cnc(C#N)cn2)n[nH]1 + COC1C(OC(N)=O)C(O)C(Oc2ccc3c(O)c(NC(=O)c4ccc(O)c(CC=C(C)C)c4)c(=O)oc3c2C)OC1(C)C,IC50,second compound 0.0316 µM,204 nM
same,IC50,second compound 0.1 µM,187 nM
same,IC50,second compound 0.316 µM,175 nM
same,IC50,second compound 1 µM,159 nM
same,IC50,second compound 3.16 µM,159 nM
same,IC50,second compound 10 µM,160 nM
same,"viability, T/C","second compound 0.0316 µM, first compound 0.00316 µM",92.4%
same,"viability, T/C","second compound 0.0316 µM, first compound 0.01 µM",94%
same,"viability, T/C",[1],94.3%
same,"viability, T/C",[2],91%
same,"viability, T/C",[3],24.6%
same,"viability, T/C",[4],9.14%
same,"viability, T/C","second compound 0.1 µM, first compound 0.00316 µM",99.6%
same,"viability, T/C","second compound 0.1 µM, first compound 0.01 µM",96.5%
same,"viability, T/C",[5],102%
same,"viability, T/C",[6],87.2%
same,"viability, T/C",[7],18.6%
same,"viability, T/C",[8],8.7%
same,"viability, T/C","second compound 0.316 µM, first compound 0.00316 µM",100%
same,"viability, T/C","second compound 0.316 µM, first compound 0.01 µM",92.2%
same,"viability, T/C",[9],97.2%
same,"viability, T/C",[10],84.6%
same,"viability, T/C",[11],13.6%
same,"viability, T/C",[12],9.43%
same,"viability, T/C","second compound 1 µM, first compound 0.00316 µM",108%
same,"viability, T/C","second compound 1 µM, first compound 0.01 µM",94%
same,"viability, T/C",[13],78.9%
same,"viability, T/C",[14],75.3%
same,"viability, T/C",[15],12.9%
same,"viability, T/C",[16],8.85%
same,"viability, T/C","second compound 3.16 µM, first compound 0.00316 µM",103%
same,"viability, T/C","second compound 3.16 µM, first compound 0.01 µM",110%
same,"viability, T/C",[17],95.9%
same,"viability, T/C",[18],70%
same,"viability, T/C",[19],21.3%
same,"viability, T/C",[20],9.8%
same,"viability, T/C","second compound 10 µM, first compound 0.00316 µM",90.1%
same,"viability, T/C","second compound 10 µM, first compound 0.01 µM",69.7%
same,"viability, T/C",[21],80.1%
same,"viability, T/C",[22],73.4%
same,"viability, T/C",[23],16.1%
same,"viability, T/C",[24],8.31%
Nc1ccn(C2OC(CO)C(O)C2(F)F)c(=O)n1 (stereo unspecified) + COC1C(OC(N)=O)C(O)C(Oc2ccc3c(O)c(NC(=O)c4ccc(O)c(CC=C(C)C)c4)c(=O)oc3c2C)OC1(C)C,IC50,second compound 0.0316 µM,< 31.6 nM
same,IC50,second compound 0.1 µM,< 31.6 nM
same,IC50,second compound 0.316 µM,< 31.6 nM
same,IC50,second compound 1 µM,< 31.6 nM
same,IC50,second compound 3.16 µM,< 31.6 nM
same,IC50,second compound 10 µM,< 31.6 nM
same,"viability, T/C",[1],10.3%
same,"viability, T/C",[2],10.7%
same,"viability, T/C",[3],10.7%
same,"viability, T/C",[4],10.6%
same,"viability, T/C",[25],8.5%
same,"viability, T/C",[26],8.9%
same,"viability, T/C",[5],12.4%
same,"viability, T/C",[6],12.8%
same,"viability, T/C",[7],10.4%
same,"viability, T/C",[8],9.28%
same,"viability, T/C",[27],9%
same,"viability, T/C",[28],8.97%
same,"viability, T/C",[9],11.4%
same,"viability, T/C",[10],11.6%
same,"viability, T/C",[11],11.5%
same,"viability, T/C",[12],8.83%
same,"viability, T/C",[29],10.4%
same,"viability, T/C",[30],9.46%
same,"viability, T/C",[13],11.9%
same,"viability, T/C",[14],8.68%
same,"viability, T/C",[15],9.63%
same,"viability, T/C",[16],10.4%
same,"viability, T/C",[31],7.97%
same,"viability, T/C",[32],9.31%
same,"viability, T/C",[17],12.1%
same,"viability, T/C",[18],8.92%
same,"viability, T/C",[19],10.3%
same,"viability, T/C",[20],10.4%
same,"viability, T/C",[33],12.1%
same,"viability, T/C",[34],8.3%
same,"viability, T/C",[21],8.46%
same,"viability, T/C",[22],10.1%
same,"viability, T/C",[23],9.42%
same,"viability, T/C",[24],8.26%
same,"viability, T/C",[35],8.87%
same,"viability, T/C",[36],8.43%
O=C(c1cc(Cc2n[nH]c(=O)c3ccccc23)ccc1F)N1CCN(C(=O)C2CC2)CC1 + COC1C(OC(N)=O)C(O)C(Oc2ccc3c(O)c(NC(=O)c4ccc(O)c(CC=C(C)C)c4)c(=O)oc3c2C)OC1(C)C,IC50,second compound 0.0316 µM,> 10000 nM
same,IC50,second compound 0.1 µM,> 10000 nM
same,IC50,second compound 0.316 µM,> 10000 nM
same,IC50,second compound 1 µM,> 10000 nM
same,IC50,second compound 3.16 µM,> 10000 nM
same,IC50,second compound 10 µM,> 10000 nM
same,"viability, T/C",[1],110%
same,"viability, T/C",[2],98%
same,"viability, T/C",[3],101%
same,"viability, T/C",[4],102%
same,"viability, T/C",[25],103%
same,"viability, T/C",[26],86.8%
same,"viability, T/C",[5],115%
same,"viability, T/C",[6],95%
same,"viability, T/C",[7],106%
same,"viability, T/C",[8],104%
same,"viability, T/C",[27],89.8%
same,"viability, T/C",[28],98.5%
same,"viability, T/C",[9],94.6%
same,"viability, T/C",[10],107%
same,"viability, T/C",[11],82.9%
same,"viability, T/C",[12],83.2%
same,"viability, T/C",[29],93.5%
same,"viability, T/C",[30],97.6%
same,"viability, T/C",[13],95.2%
same,"viability, T/C",[14],96.7%
same,"viability, T/C",[15],86.4%
same,"viability, T/C",[16],98%
same,"viability, T/C",[31],98.1%
same,"viability, T/C",[32],90.2%
same,"viability, T/C",[17],90%
same,"viability, T/C",[18],95.7%
same,"viability, T/C",[19],90.6%
same,"viability, T/C",[20],87%
same,"viability, T/C",[33],95.7%
same,"viability, T/C",[34],85.8%
same,"viability, T/C",[21],88.3%
same,"viability, T/C",[22],84%
same,"viability, T/C",[23],87.8%
same,"viability, T/C",[24],68.5%
same,"viability, T/C",[35],87.5%
same,"viability, T/C",[36],68.5%

# Source: PubChem BioAssay AID1963830 (Molecular Pharmacology Branch, DTP, NCI, 2024)
